Data published in the NIST ThermoML archive (doi:10.1021/je0604232).

Experiment: molar heat capacity at constant pressure; xn = mol fraction of the nth substance listed
Conditions: 101 kPa, Liquid

CC(O)CN (stereo not given) [1-amino-2-propanol] + O
molar heat capacity at constant pressure [J/K/mol]
Conditions	x1 = 0.1	x1 = 0.2007	x1 = 0.2996	x1 = 0.4001	x1 = 0.4983	x1 = 0.6013	x1 = 0.6999	x1 = 0.7996	x1 = 0.8959	x1 = 1
303.15 K	95	110	121	133	145	158	170	183	196	209
308.15 K	97	113	124	137	149	162	174	187	200	213
313.15 K	98	114	126	139	151	164	176	188	201	214
318.15 K	99	116	128	141	154	166	177	190	202	215
323.15 K	100	117	130	144	156	168	180	192	204	217
328.15 K	102	119	133	147	159	171	182	194	206	218
333.15 K	104	121	136	150	162	174	185	197	209	221
338.15 K	106	125	140	154	166	178	188	200	211	223
343.15 K	109	128	144	158	170	181	192	203	214	225
348.15 K	112	133	149	163	175	185	195	206	216	228
353.15 K	117	138	155	169	180	190	199	209	219	230

CN(C)CCO [2-(N,N-dimethylamino)ethanol] + O
molar heat capacity at constant pressure [J/K/mol]
Conditions	x1 = 0.0997	x1 = 0.1962	x1 = 0.3003	x1 = 0.3984	x1 = 0.4983	x1 = 0.6008	x1 = 0.698	x1 = 0.7981	x1 = 0.8938	x1 = 1
303.15 K	103	118	132	144	156	168	179	191	202	213
308.15 K	104	119	134	146	158	170	181	193	205	215
313.15 K	105	121	136	149	161	173	185	196	208	217
318.15 K	105	123	139	152	164	177	188	199	210	219
323.15 K	107	125	141	155	168	180	191	203	213	221
328.15 K	108	127	144	158	171	184	195	206	215	222
333.15 K	109	129	147	161	175	187	199	209	217	223
338.15 K	112	132	150	165	179	192	203	213	220	223
343.15 K	114	136	155	170	184	196	208	218	223	223
348.15 K	118	140	160	176	190	203	214	223	225	224
353.15 K	123	146	166	184	198	210	221	229	228	226

CNCCO [2-(methylamino)ethanol] + O
molar heat capacity at constant pressure [J/K/mol]
Conditions	x1 = 0.1	x1 = 0.1998	x1 = 0.3003	x1 = 0.399	x1 = 0.5002	x1 = 0.6061	x1 = 0.6987	x1 = 0.8003	x1 = 0.9004	x1 = 1
303.15 K	96	108	119	129	139	151	160	172	182	194
308.15 K	98	111	122	132	143	155	165	176	187	199
313.15 K	99	113	124	135	146	157	167	178	189	200
318.15 K	100	114	126	137	148	160	170	180	190	202
323.15 K	101	116	128	139	150	162	172	183	192	203
328.15 K	103	118	131	142	153	165	175	185	195	205
333.15 K	105	121	134	145	157	168	178	188	197	206
338.15 K	107	124	138	149	161	172	182	191	199	207
343.15 K	110	127	141	153	164	176	185	194	201	208
348.15 K	114	132	146	158	169	181	190	198	205	210
353.15 K	119	138	152	163	174	186	195	203	208	212
